Measured values from patent publication EP0539470B1, “NEUROMUSCULAR BLOCKING AGENTS” (THE WELLCOME FOUNDATION LIMITED, priority 1990, dated 1992).

Assays:
Type in all cases: in vivo
[1] = tested on: anterior tibialis; experiment: Neuromuscular blocking potency in anaesthetized cats (peroneal nerve stimulation, anterior tibialis twitch tension); settings: intravenous (femoral vein), calculated from dose-response curves, mg/kg as the free base, based on the weight of the atracurium cation
Procedure: (§1) Mongrel male cats (Southeastern Laboratories Animal Farm), weighing 2.2-4.25kg, were anaesthetized with a mixture of pentobarbital sodium, 7mg/kg i.p., and alpha-chloralose, 80 mg/kg i.p. Adequate levels of anaesthesia were maintained with supplemental doses of alpha-chloralose administered intravenously as needed. The trachea was cannulated and the animals were ventilated with 20 ml/kg of room air via a Harvard Apparatus respiration pump adjusted to deliver 20 strokes/minute. Arterial blood pressure was measured via a cannula in the right femoral artery connected to a Statham P23 transducer. Heart rate was determined from the ECG using a Grass tachograph. […] Isometric […] of the nictitating membrane were recorded during a resting tension of 5 grams with a Grass FT.03 force displacement transducer and a Grass polygraph. […] Twitch tension in the anterior tibialis was recorded during a resting tension of 50 grams. […] Esophageal temperature was monitored with a Yellow Springs thermistor probe and core temperature maintained between 37° and 38°C with radiant heat. […] At the end of the experiments, cats were euthanatized with intravenously administered saturated KCl or pentobarbital sodium. b) Results The ED₉₅ value for neuromuscular blocking potency was calculated from dose-response curves. […]

[2] = tested on: vagus; experiment: Parasympathetic blockade in anaesthetized cats (inhibition of the response to vagus stimulation); settings: i.v., ED₅₀ for inhibition of parasympathetic (vagus) nerve stimulation relative to neuromuscular ED₉₅
Procedure: as §1

[3] = tested on: cervical sympathetic nerve; experiment: Sympathetic blockade in anaesthetized cats (cervical sympathetic nerve stimulation, nictitating membrane contraction); settings: i.v., ED₂₅ for inhibition of sympathetic nerve stimulation relative to neuromuscular ED₉₅
Procedure: as §1

SMILES | CALC. * ED₉₅ [1] [mg/kg] | RATIO 50% VAGUS INHIBITION vs. ED₉₅ [2] | RATIO 25% SYMPATHETIC INHIBITION vs. ED₉₅ [3]
COc1ccc(C[C@@H]2c3cc(OC)c(OC)cc3CC[N+]2(C)CCC(=O)OCCCCCOC(=O)CC[N+]2(C)CCc3cc(OC)c(OC)cc3[C@H]2Cc2ccc(OC)c(OC)c2)cc1OC.CS(=O)(=O)[O-].CS(=O)(=O)[O-] (relative stereo) [Compound A, 1R-cis,1'R-cis-2,2'-(3,11-Dioxo-4,10-dioxatridecamethylene)-bis-(1,2,3,4-tetrahydro-6,7-dimethoxy-2-methyl-1-veratrylisoquinolinium)methanesulphonate] | 0.062 ± 0.008 | 27 | 60
COc1ccc(CC2c3cc(OC)c(OC)cc3CC[N+]2(C)CCC(=O)OCCCCCOC(=O)CC[N+]2(C)CCc3cc(OC)c(OC)cc3C2Cc2ccc(OC)c(OC)c2)cc1OC (stereo not drawn) [Atracurium besylate, 2,2'-(3,11-dioxo-4,10-dioxatridecylene)-bis-(1,2,3,4-tetrahydro-6,7-dimethoxy-2-methyl-1-veratrylisoquinolinium dibesylate] | 0.092 ± 0.010 | 17 | 34
